Measurements reported in patent US5140040A, “1-aminomethyl-1,2,3,4-tetrahydronaphthalenes” (Abbott Laboratories, priority 1991, dated 1992).
Where a name gives a salt, the structure may show the parent alone.

Legend:
[1] = target: T1, alpha-1-receptor (Rattus norvegicus, UniProt P15823); assay: Radioligand binding, alpha-1 adrenoceptor, rat liver homogenates, [^3 H]-prazosin
T1 construct: rat liver homogenates; from tissue; host or cells: rat liver homogenates
T1 sequence (P15823 1-515): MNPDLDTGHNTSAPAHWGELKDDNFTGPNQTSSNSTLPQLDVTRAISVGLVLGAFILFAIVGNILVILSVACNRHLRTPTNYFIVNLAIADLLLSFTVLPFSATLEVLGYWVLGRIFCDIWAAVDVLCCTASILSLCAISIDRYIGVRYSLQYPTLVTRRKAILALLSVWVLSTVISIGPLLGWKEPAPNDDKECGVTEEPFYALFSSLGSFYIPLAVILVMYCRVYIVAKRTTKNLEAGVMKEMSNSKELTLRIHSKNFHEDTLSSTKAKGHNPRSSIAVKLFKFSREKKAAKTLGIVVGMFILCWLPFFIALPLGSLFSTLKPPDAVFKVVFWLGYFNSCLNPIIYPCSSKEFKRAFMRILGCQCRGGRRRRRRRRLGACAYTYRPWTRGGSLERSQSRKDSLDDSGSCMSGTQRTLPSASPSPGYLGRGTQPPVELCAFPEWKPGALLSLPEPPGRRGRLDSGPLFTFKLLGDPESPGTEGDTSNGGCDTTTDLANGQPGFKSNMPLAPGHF
Procedure: (§1) The compounds were assessed for alpha-adrenergic receptor subtype selectivity by use of radioligand binding techniques as described previously (DeBernardis et.al. J. Med. Chem. 28, 1398 (1985)).

[2] = target: alpha-2-receptor; assay: Radioligand binding, alpha-2 adrenoceptor, rat cerebral cortices, [^3 H]-rauwolscine; details: for Ki: rat cerebral cortices, [^3 H]-rauwolscine; for alpha-2 - Selectivity Ki alpha-1/Ki alpha 2: ratio of Ki alpha-1 to Ki alpha-2
Procedure: as §1

[3] = system: intraocular pressure; assay: Effect of topically administered compounds on intraocular pressure of rabbits; format: in vivo, New Zealand rabbits; details: 0.3% soln., 0.1 ml topical
Procedure: The intraocular pressure lowering effects of the compounds were evaluated in unanesthetized male albino, New Zealand rabbits weighing 2.0 to 2.5 kg. The rabbits were placed in Plas Labs restraining devices for the duration of the experiment. Intraocular pressure (IOP) was measured with a Bausch and Lomb Applamatic Tonometer and recorded as the average of three individual readings at each time point in the experiment. Baseline IOP values were established at three time points separated by 30 minutes. Each compound or vehicle was applied topically to the cornea in a volume of 0.1 ml to one eye in each six rabbits. The contralateral eye was untreated. IOP was recorded at 5, 15, 30, 60 and 90 minutes after dosing.

Compound: 5-Methoxy-1-(3-phenylpyrrolidino-1-methyl) indane hydrochloride [Example 152]
- Ki [1]: 51 nM
- Ki [2]: 4.8 nM
- alpha-2 - Selectivity Ki alpha-1/Ki alpha 2 [2]: 11

Compound: CN(CCc1cccs1)CC1CCCc2cc(Cl)ccc21 (centres unmarked) [Example 49, 1-((N-Methylamino)meth-N-(2-(2-thienyl)ethyl))-6-chloro tetralin hydrochloride]
- Ki [1]: 1130 nM
- Ki [2]: 10 nM
- alpha-2 - Selectivity Ki alpha-1/Ki alpha 2 [2]: 113

Compound: CN(C)c1ccc2c(c1)CCCC2CN1CCC(c2ccccc2)C1 (centres unmarked) [Example 188, 6-(N-N'-dimethylamino)-1-(3-phenylpyrrolidino-1-methyl)tetralin dihydrochloride]
- Ki [1]: 118 nM
- Ki [2]: 0.5 nM
- alpha-2 - Selectivity Ki alpha-1/Ki alpha 2 [2]: 236

Compound: Fc1ccc2c(c1)CCCC2CN1CCC(c2cccs2)C1 (centres unmarked) [Example 149, 6-Fluoro-1-(3-(2-thienyl)pyrrolidino-1-methyl) tetralin methanesulfonate]
- Ki [1]: 220 nM
- Ki [2]: 4.9 nM
- alpha-2 - Selectivity Ki alpha-1/Ki alpha 2 [2]: 45

Compound: CN(CCc1ccccc1)CC1CCCc2cc(O)ccc21 (centres unmarked) [11 (HCl salt)]
- Ki [1]: 254 nM
- Ki [2]: 1.7 nM
- alpha-2 - Selectivity Ki alpha-1/Ki alpha 2 [2]: 149
- % Change in Intraocular Pressure After Treatment Compared to Untreated Eye ([3]; 5 minutes): -38%
- % Change in Intraocular Pressure After Treatment Compared to Untreated Eye ([3]; 15 minutes): -55%
- % Change in Intraocular Pressure After Treatment Compared to Untreated Eye ([3]; 30 minutes): -54%
- % Change in Intraocular Pressure After Treatment Compared to Untreated Eye ([3]; 60 minutes): -44%
- % Change in Intraocular Pressure After Treatment Compared to Untreated Eye ([3]; 90 minutes): -20%
